One block for each compound: values may come before it. Active and inactive are the calls of the source. Cut-off read from the data, not from the text of the source, for most assays here: actives have a measured IC50 and inactives only a lower limit.
Assays:
Coagulation factor XII [1] = target: T1, Coagulation factor XII (Homo sapiens, UniProt P00748); assay: Factor XIIa Dose Response Confirmation from Single Well HTS. [Related pubchem assays (depositor defined):AID701]; format: functional
T1 sequence (P00748 whole entry): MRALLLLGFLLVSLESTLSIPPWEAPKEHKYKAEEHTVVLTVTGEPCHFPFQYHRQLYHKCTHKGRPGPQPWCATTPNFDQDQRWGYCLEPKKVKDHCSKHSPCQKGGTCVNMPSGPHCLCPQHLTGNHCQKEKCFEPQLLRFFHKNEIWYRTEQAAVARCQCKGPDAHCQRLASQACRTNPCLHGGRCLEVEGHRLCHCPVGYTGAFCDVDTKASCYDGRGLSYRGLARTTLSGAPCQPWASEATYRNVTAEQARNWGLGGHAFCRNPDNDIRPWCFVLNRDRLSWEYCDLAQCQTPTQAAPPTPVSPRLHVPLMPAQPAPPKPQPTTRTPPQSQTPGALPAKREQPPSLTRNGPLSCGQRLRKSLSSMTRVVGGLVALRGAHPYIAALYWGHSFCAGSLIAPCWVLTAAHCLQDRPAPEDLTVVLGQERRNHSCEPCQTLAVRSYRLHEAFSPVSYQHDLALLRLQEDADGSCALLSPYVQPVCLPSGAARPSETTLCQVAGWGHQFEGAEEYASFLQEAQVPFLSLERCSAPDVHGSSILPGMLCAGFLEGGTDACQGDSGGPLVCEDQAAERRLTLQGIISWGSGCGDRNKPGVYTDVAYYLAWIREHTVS

[2] = viability of uninfected HEp-2 cells – cell-based, HTS, cytotoxicity control for RSV inhibitor project, dose response (AID 2410); format: functional; conditions: human respiratory syncytial virus
[3] = target: Alkaline phosphatase, placental type (Homo sapiens, UniProt P05187); assay: human placental alkaline phosphatase inhibition – biochemical, luminescence, confirmation (AID 1512); format: functional
[4] = target: T2, Alkaline phosphatase, tissue-nonspecific isozyme (Homo sapiens, UniProt P05186); assay: potency against alkaline phosphatase TNAP – biochemical, luminescent, dose response, SAR follow-up (AID 1056)
T2 sequence (P05186 whole entry): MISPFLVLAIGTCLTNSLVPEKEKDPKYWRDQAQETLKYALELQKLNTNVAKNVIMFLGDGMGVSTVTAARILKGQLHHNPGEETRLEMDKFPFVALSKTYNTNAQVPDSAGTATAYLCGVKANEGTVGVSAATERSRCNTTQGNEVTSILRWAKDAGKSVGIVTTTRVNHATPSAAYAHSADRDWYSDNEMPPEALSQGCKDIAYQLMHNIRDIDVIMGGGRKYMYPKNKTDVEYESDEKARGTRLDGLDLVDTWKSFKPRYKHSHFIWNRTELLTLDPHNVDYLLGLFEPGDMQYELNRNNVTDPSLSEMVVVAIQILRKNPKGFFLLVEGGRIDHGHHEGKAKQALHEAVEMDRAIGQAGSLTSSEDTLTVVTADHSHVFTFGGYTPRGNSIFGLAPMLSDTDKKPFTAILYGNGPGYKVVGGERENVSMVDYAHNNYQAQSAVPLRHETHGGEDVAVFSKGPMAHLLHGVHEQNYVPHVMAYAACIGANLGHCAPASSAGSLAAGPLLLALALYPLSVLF

[5] = target: Glyceraldehyde-3-phosphate dehydrogenase (Homo sapiens, UniProt P04406)
Coagulation factor XII [6] = target: T1, Coagulation factor XII; assay: activated coagulation factor XII inhibitor potency, concentration-effect curve, cell-free (AID 716); format: functional

Glyceraldehyde-3-phosphate dehydrogenase, sequence (P04406 whole entry): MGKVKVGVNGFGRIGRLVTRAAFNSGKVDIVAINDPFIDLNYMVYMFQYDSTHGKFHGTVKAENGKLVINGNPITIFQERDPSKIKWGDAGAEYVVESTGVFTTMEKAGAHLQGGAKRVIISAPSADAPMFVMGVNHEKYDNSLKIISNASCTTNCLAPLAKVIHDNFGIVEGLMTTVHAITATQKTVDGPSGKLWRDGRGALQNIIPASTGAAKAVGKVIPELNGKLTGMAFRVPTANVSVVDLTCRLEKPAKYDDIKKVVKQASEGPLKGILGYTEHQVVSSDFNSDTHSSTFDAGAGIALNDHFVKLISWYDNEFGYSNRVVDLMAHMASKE
Alkaline phosphatase, placental type, sequence (P05187 whole entry): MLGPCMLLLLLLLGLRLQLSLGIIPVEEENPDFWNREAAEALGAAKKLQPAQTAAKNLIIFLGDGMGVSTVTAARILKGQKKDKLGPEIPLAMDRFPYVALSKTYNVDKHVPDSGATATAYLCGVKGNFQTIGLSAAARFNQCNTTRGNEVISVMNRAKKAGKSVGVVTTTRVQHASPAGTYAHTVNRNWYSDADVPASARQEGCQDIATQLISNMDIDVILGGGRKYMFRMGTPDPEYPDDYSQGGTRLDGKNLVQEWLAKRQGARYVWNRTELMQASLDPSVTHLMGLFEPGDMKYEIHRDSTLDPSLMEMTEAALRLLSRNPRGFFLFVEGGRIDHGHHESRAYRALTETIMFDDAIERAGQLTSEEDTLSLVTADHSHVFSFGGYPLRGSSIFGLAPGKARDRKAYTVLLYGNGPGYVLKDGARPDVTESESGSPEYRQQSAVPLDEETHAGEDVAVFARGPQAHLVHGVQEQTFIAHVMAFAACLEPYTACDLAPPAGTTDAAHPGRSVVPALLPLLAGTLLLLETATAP

IC50 (Coagulation factor XII [1]): > 50 µM (inactive)
Structure (SMILES): Cc1ccc(-c2cc(-c3ccccc3)c3c(N)c(S(C)(=O)=O)sc3n2)cc1
CC50 [2]: 48.4 µM (active)

IC50 [3]: > 100 µM (inactive)
IC50 [4]: > 100 µM (inactive)
IC50 [5]: > 100 µM (not active)
Structure (SMILES): COc1cccc(Cc2nc(N)nn2-c2ccccc2)c1

IC50 (Coagulation factor XII [6]): > 50 µM (inactive)
Structure (SMILES): CC(C)(C)NC(=O)CN(C(=O)C1CSC(=O)C1)c1ccc2c(c1)OCCO2 (stereo unspecified)
